Measured values taken from ChEMBL document CHEMBL1152929, “Dapholdhamines A-D, alkaloids from Daphniphyllum oldhami” (J Nat Prod, 2009).
The source made the active and inactive calls.

Tests used:
Format in all cases: functional, cell-based
HCT-116 = experiment: Cytotoxicity against human HCT116 cells
HL-60 = experiment: Cytotoxicity against human HL60 cells
HT-29 = experiment: Cytotoxicity against human HT-29 cells
SW480 = experiment: Cytotoxicity against human SW480 cells
KB = experiment: Cytotoxicity against human KB cells
K562 = experiment: Cytotoxicity against human K562 cells

Measured: Activity

COC(=O)c1c2ccoc3c-2c2c1C(=O)[C@]1(O)C[C@@]4(O)N(C[C@@H](CC3)[C@@]24C)C[C@H]1C
inactive: all assays above

CC(C)[C@H]1CC[C@@]2(C)[C@H]3C[C@@H]4[C@H]5CCC[C@@]4(O)[C@@]2(CCC(=O)O)[C@@H]1N5C3
inactive: all assays above

COC(=O)c1c2ccoc3c-2c2c1C(=O)[C@]1(O)CC4(CC(C)=O)N(C[C@@H](CC3)[C@@]24C)C[C@H]1C
inactive: all assays above

C[C@@H]1CN2C3[C@@H]4CC[C@@]35CCC[C@H]5[C@@]3(CCC(=O)O)[C@H]2[C@]1(O)CC[C@@]43C
inactive: all assays above
